Structures are written as SMILES.

This note sets out measurements from patent EP0486809A2, “Use of suramin against TNF-related diseases” (priority 1990, dated 1992).

Data set [1] deals with T1, human TNFa (Homo sapiens, UniProt P01375). Briefly: Inhibition by suramin of the cytotoxic activity of TNFa on untreated mouse LM cells (MTT). The data set is classed as cell-based. The conditions noted are these: measured after 2 days, Figure 6. The procedure: The experiments depicted in Figure 6 were similar to the experiments of Figure 5, except that actinomycin D was omitted from the incubation mixture. In this case the cytotoxic activity of human TNFa was measured after 2 days. […] The degree of inhibition was dependent on the activity of human TNFa employed, i.e. doses of human TNFa exerting high cytotoxic activity were less inhibitable than those exerting lower cytotoxic activity.
T1 sequence (P01375 77-233 limits assumed): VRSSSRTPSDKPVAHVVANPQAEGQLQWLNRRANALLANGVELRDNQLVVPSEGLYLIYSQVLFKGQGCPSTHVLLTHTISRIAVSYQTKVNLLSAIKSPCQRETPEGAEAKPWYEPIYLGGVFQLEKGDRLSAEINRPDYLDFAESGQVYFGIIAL
3) Inhibition by suramin of the cytotoxic activity of TNF a on untreated mouse LM cells.
On day O logarithmically growing mouse LM cells (Rubin, B.Y. et al. J. Exp. Med. 162 : 1099 (1985)) are trypsinized, centrifuged and resuspended at a final concentration of 5 x 10^4 cells/ml of Eagle's minimun essential medium supplemented with 5% FCS and 1% glutamine (complete MEM). […]
The plates are further incubated for 4 hours at 37 °C. Then, supernatants are discarded, 200 µl of dimethylsulfoxide (DMSO, Farmitalia Carlo Erba) are added to each well and the extent of color development is read on a plate ELISA reader at 570 nm. OD values obtained for each TNF a concentration and each TNFa-suramin mixture are expressed as percent (%) of those obtained for the controll wells containing only complete MEM and complete MEM plus each suramin dilution, respectively.

Data set [2] deals with T1, human TNFa. Briefly: Inhibition by suramin of the cytotoxic activity of TNFa on actinomycin D-treated LM cells (MTT). It is filed as cell-based. The conditions noted are these: mouse LM cells treated with actinomycin D, measured the day after; Figure 5. The procedure: In the experiment depicted in Figure 5 different concentrations of human TNFa (Esquire) were incubated, in the absence or presence of different doses of suramin, with mouse LM cells treated with actinomycin D. Treatment with actinomycin D is known to render LM cells more sensitive to the cytotoxic activity of TNFa (Ruff, M.R. and Gifford, G.E., J. lmmunol. 125: 1671 (1980)). The cytotoxic activity of human TNFa was measured the day after.
Inhibition by suramin of the cytotoxic activity of TNF a on actinomycin D - treated LM cells.
The experimental design is similar to that for the assay on untreated LM cells.
The differences are as follows. • 1) 100 µl of a cell-suspension containing 3 x 10^5 cells/ml are added to each well of microtiter plates. • 2) Before setting up the TNFa-cytotoxicity assay, the cells are pretreated for 4 hours at 37 °C with complete MEM (100 µl/well) containing 2 µg/ml actinomycin D (Fluka). • 3) The cytotoxic activity of human TNF a is measured after an incubation period of 24 hours at 37 ° C.

Data set [3] deals with T1, human TNFa. Briefly: Inhibition by suramin of the binding of iodinated human TNFa to K562 cells. To be noted: for IC50: Figure 1, read-out: Inhibitory concentrations 50 (IC50). Set-up: purchased New England Nuclear (NEN), Wilmington, DE. The procedure: In the experiment depicted in Figure 1 suramin was mixed, at the indicated doses, with 2.5 x 10^-11M, 10^-10M, or 4 x 10^-10M iodinated human TNFa - (New England Nuclear, NEN, Wilmington, DE). The mixtures were then added immediately to K562 cells. The residual binding of TNF a was measured and compared to the binding to K562 cells in the absence or presence of a 100-fold higher dose of "cold" unlabeled human TNFa (Esquire Chemie AG, Zuerich, Switzerland). […] Higher doses of suramin are required to inhibit the binding of higher doses of iodinated TNFa. […]
1) Inhibition by suramin of the binding of iodinated human TNF a to K562 cells.
lodinated human TNFa (NEN, specific activity = 30 - 70 µCi/µg protein) is diluted so to have concentrations of 1.6 x 10-^9 M, 4 x 10^-10M and 10^-10M in RPMI 1640 medium (Flow, Opera, Italy) supplemented with 2% foetal calf serum (FCS, PBI, Milan, Italy) and 14 mM Hepes (Flow). This medium will hereon be referred to as binding medium (BM). "Cold" unlabeled human TNF a (Esquire) is diluted in BM so to have concentrations of 1.6 x 10^-7M, 4 x 10-^8 M and 10^-8M. Suramin (Bayer, Leverkusen, FRG) is dissolved in BM so to have a concentration of 4 mM. Starting from this solution a series of dilutions are set up in BM.
K562 cells (human chronic myelogenous leukemia, ATCC CCL243) are adjusted to a concentration of 2 x 10^6/ml in BM. 100 µl of the cell suspension are then incubated with 50 µl of each iodinated TNFa concentration and with 50 µl BM or 50 µl of a 100 fold higher concentration of "cold" TNF a or 50 µl of each suramin dilution. The mixtures are incubated for 4 hours at […]. Thereafter the cells are centrifuged through a phthalate-dibutyl phthalate oil mixture (1:1,5 vol/vol, Fluka AG, Buchs, Switzerland). Cell-associated radioactivity is determined in a gamma-counter. Data thus obtained are processed by means of an equilibrium binding data analysis program (EBDA, Elsevir Science Publishers, Amsterdam, Netherlands). […]

For data set [4], the target named is T1, human TNFa. Briefly: Inhibition by suramin of the binding of iodinated human TNFa to LM cells. Set-up: purchased New England Nuclear (NEN), Wilmington, DE. The conditions noted are these: binding of 3 x 10^-10M human TNFa to mouse LM cells; Figure 2.
Description: The mixtures were then added to mouse LM cells. The residual binding of TNFa was measured and compared to the binding to LM cells in the absence or presence of a 100-fold higher dose of "cold" unlabeled human TNFa. […] For the binding assay, 24-well plates (Costar, Vis- mara Associate, Trezzano sul Naviglio, Italy) are used, that have been seeded the day before with mouse LM cells (Rubin, B.Y. et al. J. Exp. Med. 162: 1099 (1985)), 200.000 cells/well. The medium is discarded and replaced with 100 µl BM supplemented with 0.04% Na N3, 50 µl iodinated human TNF a and 50 µl BM or 50 µl cold TNF a or 50 µl of each suramin dilution. After 4 hours at 4°C cells are washed 4 x with BM, solubilized with 2% SDS and cell-associated radioactivity is determined. Data are processed as described before.

On to `Cc1ccc(C(=O)Nc2ccc(S(=O)(=O)O)c3cc(S(=O)(=O)O)cc(S(=O)(=O)O)c23)cc1NC(=O)c1cccc(NC(=O)Nc2cccc(C(=O)Nc3cc(C(=O)Nc4ccc(S(=O)(=O)O)c5cc(S(=O)(=O)O)cc(S(=O)(=O)O)c45)ccc3C)c2)c1` [suramin, 8,8' - (carbonylbis(imino-3,1-phenylenecarbonylimino (4-methyl-3,1-phenylene)carbonylimino)) bis-1,3 ,5-naphthalenetrisulfonic acid], for which the “inhibition of the cytotoxic activity of human TNFa” value on human TNFa [1] is on record as “inhibited, in a dose- dependent manner”; at human TNFa [2] it was “inhibited, in a dose- dependent manner”. Also, the IC50 at human TNFa [3] (binding of 2.5 x 10-"M human TNFa to human K562 cells) was found to be 78 µM; at human TNFa [3] (binding of 4 x 10-'°M human TNFa to human K562 cells) it was 180 µM; on human TNFa [3] (binding of 10^-10M human TNFa to human K562 cells), 126 µM; at human TNFa [4], 175 µM. In addition, at human TNFa [3] (sequential addition of suramin and 10^-10M TNFa, K562 cells washed in between, Figure 4), the “inhibition of the binding of TNFa to K562” value is “no inhibition”.
